Key:
UNCN3T cells [1] = test: Cytokine release (ELISA) in response to inhaled drugs, UNCN3T
Description: SPOC1 or UNCN3T cells were seeded onto 24-well tissue culture treated plates, pre-coated with a 1/20 dilution of Geltrex™. Cells were seeded at 5 × 10^4 cells/well and grown to confluence in the appropriate maintenance medium. The cells were washed four times (20 min per wash) with TB appropriate to each cell line after which the cells were incubated for 30 min at 37 °C 5% CO2/95% air in control or drug solutions prepared in the appropriate transport buffer. […] Samples from UNCN3T cells (human origin) were analysed for IL-6 and IL-8. Cytokines and mucins were quantified using ELISAs (Legend Max, BioLegend San Diego, CA) according to the manufacturer’s instructions and ELLA respectively.

UNCN3T cells [2] = test: Mucin secretion (ELLA) in response to inhaled drugs, UNCN3T on Geltrex-coated plastic; type: cell-based, human
Description: Wells were then washed three times with phosphate buffered saline (PBS) containing 0.05 % v/v Tween, 0.5 % w/v bovine gelatin type B (Sigma Aldrich), and blocked by incubation with PBS containing 1.0 % w/v gelatin at 37 °C for 1 h. […] Wells with samples from UNC[…] cells were incubated with biotinylated-Helix pomatia agglutinin prepared in the blocking solution. These wells were then washed before incubation with HRP-labelled streptavidin. Finally, plates containing samples from all cell lines were washed repeatedly and developed by the addition of substrate solution which consisted of o-phenylene diamine (Sigma […] tablet) prepared according to manufacturer's instructions, for 3 min at room temperature, after which the reaction was terminated by the addition of 20% (v/v) H2SO4. The absorbance at 492 nm was measured using an Ascent MultiskanTM plate reader (Thermo Fisher Scientific). The absorbance of the samples was compared with known mucin standards, purified by two rounds of density gradient ultracentrifugation, as described by […] et al., from the sputum of a volunteer with chronic obstructive pulmonary disease. Ethical approval was obtained from the University of Brighton School of Pharmacy and Biomolecular Sciences Ethics Committee, under reference PABSREC 0509, and informed consent was obtained from the volunteer.

UNCN3T cells [3] = test: Enhancement of mucin secretion using AMP-PNP (Secretagogue model), ELLA, UNCN3T; type: cell-based, human
Description: Cells cultured on inserts were arbitrarily divided into two groups termed 'low mucus' and 'high mucus'. […] Plates were kept on a shock-absorbing foam pad to prevent inadvertent mechanical stimulation of mucin secretion. […] Washes were stored at 4 °C until mucin secretion could be determined using an ELLA (on the day of treatment). At 10, 20 and 30 min, three further washes were performed and the average mucin content used to establish baseline mucin secretion. […] Each AMP-PNP/TB apical solution was changed (“like for like”) at 10-minute intervals. […] Wells were then washed three times with phosphate buffered saline (PBS) containing 0.05 % v/v Tween, 0.5 % w/v bovine gelatin type B (Sigma Aldrich), and blocked by incubation with PBS containing 1.0 % w/v gelatin at 37 °C for 1 h. […] Wells with samples from UNC[…] cells were incubated with biotinylated-Helix pomatia agglutinin prepared in the blocking solution. These wells were then washed before incubation with HRP-labelled streptavidin. Finally, plates containing samples from all cell lines were washed repeatedly and developed by the addition of substrate solution which consisted of o-phenylene diamine (Sigma […] tablet) prepared according to manufacturer's instructions, for 3 min at room temperature, after which the reaction was terminated by the addition of 20% (v/v) H2SO4. The absorbance at 492 nm was measured using an Ascent MultiskanTM plate reader (Thermo Fisher Scientific). The absorbance of the samples was compared with known mucin standards, purified by two rounds of density gradient ultracentrifugation, as described by […] et al., from the sputum of a volunteer with chronic obstructive pulmonary disease. Ethical approval was obtained from the University of Brighton School of Pharmacy and Biomolecular Sciences Ethics Committee, under reference PABSREC 0509, and informed consent was obtained from the volunteer.

UNCN3T cells [4] = test: TEER of UNCN3T cells before and after AMP-PNP; details: AMP-PNP 100 μM
Calu-3 cells = test: Enhancement of mucin secretion using AMP-PNP (Secretagogue model), ELLA, Calu-3; type: cell-based, human; details: Calu-3, AMP-PNP 100 μM, apical
Description: Cells cultured on inserts were arbitrarily divided into two groups termed 'low mucus' and 'high mucus'. […] Plates were kept on a shock-absorbing foam pad to prevent inadvertent mechanical stimulation of mucin secretion. […] Washes were stored at 4 °C until mucin secretion could be determined using an ELLA (on the day of treatment). At 10, 20 and 30 min, three further washes were performed and the average mucin content used to establish baseline mucin secretion. […] Each AMP-PNP/TB apical solution was changed (“like for like”) at 10-minute intervals. […] Wells were then washed three times with phosphate buffered saline (PBS) containing 0.05 % v/v Tween, 0.5 % w/v bovine gelatin type B (Sigma Aldrich), and blocked by incubation with PBS containing 1.0 % w/v gelatin at 37 °C for 1 h. […] Wells with samples from UNC[…] cells were incubated with biotinylated-Helix pomatia agglutinin prepared in the blocking solution. These wells were then washed before incubation with HRP-labelled streptavidin. […] The absorbance at 492 nm was measured using an Ascent MultiskanTM plate reader (Thermo Fisher Scientific). The absorbance of the samples was compared with known mucin standards, purified by two rounds of density gradient ultracentrifugation, as described by […] et al., from the sputum of a volunteer with chronic obstructive pulmonary disease. […]

[5] = UNCN3T control wells treated with 100 μM AMP-PNP at 100 min, by 120 min, data not shown

O=S(=O)([O-])[O-].[O]=[V+2] [VOSO4, Vanadium (IV) oxide sulfate]
IL-6 release, fold that of culture medium (UNCN3T cells [1]): 66 fold | IL-6 release (UNCN3T cells [1]; VOSO4 20 μg mL^−1, 30 min, medium alone 1.9 ± 0.3): 124.0 ± 6.5 pg/mL | IL-8 release (UNCN3T cells [1]; VOSO4 20 μg mL^−1, 30 min, medium alone 12.5 ± 0.6): 251.1 ± 14.5 pg/mL

CCCC1O[C@@H]2C[C@H]3[C@@H]4CCC5=CC(=O)C=C[C@]5(C)[C@H]4[C@@H](O)C[C@]3(C)[C@]2(C(=O)CO)O1 (some centres unmarked) [budesonide]
Effect on IL-8 release (UNCN3T cells [1]; 20 μM, 30 min): significantly increased | Effect on mucin secretion (UNCN3T cells [2]; UNCN3T, inhaled drugs, vs culture medium alone): no effect

Nc1ncnc2c1ncn2[C@@H]1O[C@H](COP(=O)([O-])OP(=O)([O-])NP(=O)([O-])[O-])[C@@H](O)[C@H]1O.[Li+].[Li+].[Li+].[Li+] [AMP-PNP, adenylyl-imidodiphosphate, tetralithium salt]
Fold increase in mucin secretion (UNCN3T cells [3]; [5]): 1.5 fold | Mucin level after AMP-PNP (UNCN3T cells [3]; [5]): 4.34 ± 0.83 ng/well | Fold increase in mucin secretion (UNCN3T cells [3]; UNCN3T, AMP-PNP 100 μM, vs baseline): 2 fold | Mucin level after AMP-PNP (UNCN3T cells [3]; UNCN3T, AMP-PNP 100 μM, baseline 2.91 ± 0.92): 5.44 ± 1.63 ng/well | Effect upon TEER (UNCN3T cells [4]): no discernible effect | Mean TEER after treatment (UNCN3T cells [4]; before treatment 229 ± 20): 219 ± 19 Ω.cm^2 | Mucin secretion (UNCN3T cells [2]; UNCN3T on Geltrex-coated plastic, AMP-PNP 100 μM, 30 min, medium alone 0.94 ± 0.04): 3.22 ± 0.24 ng/well | Effect on quantity of mucin secreted (Calu-3 cells): no significant increase | Effect on quantity of mucin secreted (Calu-3 cells; listed as adenylyl-imidodiphosphate): not

From publication PMC8422164, “A comparison of three mucus-secreting airway cell lines (Calu-3, SPOC1 and UNCN3T) for use as biopharmaceutical models of the nose and lung” (European Journal of Pharmaceutics and Biopharmaceutics, 2021)
